Data taken from patent publication US5952324A, “Bicyclic oxazine and thiazine oxazolidinone antibacterials” (Pharmacia & Upjohn Company, priority 1997, dated 1999).

These molecules were tested on S. aureus UC ® 9213 (assay: In vivo murine assay, ED50 against S. aureus UC 9213 infection (survival, female mice)). Conditions: Staphylococcus aureus, UC9213, 144 h; PO; female mice infected intraperitoneally; dosed one and five hours after infection, six dose levels; survival six days, probit analysis; read-out: ED50 (mg/kg), Example, PO.
Procedure: Antimicrobial activity was tested in vivo using a Murine Assay procedure. Groups of female mice were injected intraperitoneally with bacteria which were thawed just prior to use and suspended in brain heart infusion with 4% Brewer's yeast UC9213 (Staphylococcus aureus) or brain hear infusion (Streptococcus species). Antibiotic treatment a six dose levels per drug was administered on hour and five hours after infection by either oral or subcutaneous routes. Survival was observed daily for six days. ED50 values based on mortality ratios were calculated using probit analysis. The subject compounds were compared against a well-known antibacterial (Vancomycin) as a control.
In Vivo Activity Against S. aureus UC ® 9213

Compound	ED50 [mg/kg]
CC(=O)NC[C@H]1CN(c2ccc(N3C[C@@H]4C[C@H]3CO4)c(F)c2)C(=O)O1 [Example 1, (S)-N-[[3-[4-[(1S,4S)-2-oxa-5-azabicyclo[2.2.1]heptan-5-yl]-3-fluorophenyl]-2-oxo-5-oxazolikinyl]methyl]acetamide]	7.7
CC(=O)NC[C@H]1CN(c2ccc(N3C[C@@H]4C[C@H]3CS4)c(F)c2)C(=O)O1 [Example 2, (S)-N-[[3-[3-fluoro-4-[(1S,4S)-2-thia-5-azabicyclo[2.2.1]heptan-5-yl]-phenyl]-2-oxo-5-oxazolidinyl]methyl]acetamide]	4.2
CC(=O)NC[C@H]1CN(c2ccc(N3C[C@H]4CSC[C@H]4C3)c(F)c2)C(=O)O1 [Example 4, (S)-N-[[3-[3-fluoro-4-(tetrahydro-1H-thieno[3,4-c]pyrrol-5(3H)-yl)phenyl]-2-oxo-5-oxazolidinyl]methyl]acetamide]	4.3
CC(=O)NC[C@H]1CN(c2ccc(N3C[C@@H]4C[S+]([O-])C[C@@H]4C3)c(F)c2)C(=O)O1 (stereo partly drawn) [Example 5, (S)-N-[[3-[3-fluoro-4-(tetrahydro-1H-thieno[3,4-c]pyrrol-5(3H)-yl)phenyl]-2-oxo-5-oxazolidinyl]methyl]acetamide, S-oxide]	10
CC(=O)NC[C@H]1CN(c2ccc(N3C[C@@H]4CS(=O)(=O)C[C@@H]4C3)c(F)c2)C(=O)O1 [Example 6, (S)-N-[[3-[3-fluoro-4-(tetrahydro-1H-thieno[3,4-c]pyrrol-5(3H)-yl)phenyl]-2-oxo-5-oxazolidinyl]methyl]acetamide, S,S-dioxide]	3.5
